One may read the Emax as the greatest response seen or fitted, relative to the assay's reference.

In test [1] the test system is primary cultured guinea-pig urinary bladder (GPB) cells. Description: Membrane hyperpolarization (MHP) assay, DiBAC(4)3 / FLIPR. It is filed as cell-based. The conditions noted are these: for EC50: concentration that elicits 50% of the maximal response for the test sample; for Maximal Response (% P1075) / Emax: maximal steady-state hyperpolarization, normalized to response with 10 μM P1075 (100%). Here is the method: Compounds were evaluated for potassium channel opening activity using primary cultured guinea-pig urinary bladder (GPB) cells.
For the preparation of urinary bladder smooth muscle cells, urinary bladders were removed from male guinea-pigs (Hartley, Charles River, Wilmington, Mass.) weighing 300-400 g and placed in ice-cold Ca^2+-free Krebs solution (Composition, mM: KCl, 2.7; KH2PO4, 1.5; NaCl, 75; Na2HPO4, 9.6; Na2HPO4.7H2O, 8; MgSO4, 2; glucose, 5; HEPES, 10; pH 7.4). Cells were isolated by enzymatic dissociation as previously described with minor modifications (Klockner, U. and Isenberg, G., Pflugers Arch. (1985), 405, 329-339), hereby incorporated by reference. The bladder was cut into small sections and incubated in 5 mL of the Kreb's solution containing I mg/mL collagenase (Sigma, St. Louis, Mo.) and 0.2 mg/mL pronase (Calbiochem, La Jolla, Calif.) with continuous stirring in a cell incubator for 30 minutes. The mixture was then centrifuged at 1300×g for 5 minutes, and the pellet resuspended in Dulbecco's PBS (GIBCO, Gaithersburg, Md.) and recentrifuged to remove residual enzyme. The cell pellet was resuspended in 5 mL growth media (composition: Dulbecco's modified Eagle's medium supplemented with 10% fetal bovine serum, 100 units/mL penicillin, 100 units/mL streptomycin and […] amphotericin B) and further dissociated by pipetting the suspension through a flame-polished Pasteur pipette and passing it through a polypropylene mesh membrane (Spectrum, Houston, Tex.). The cell density was adjusted to 100,000 cells/mL by resuspension in growth media. Cells were plated in clear-bottomed black 96-well plates (Packard) for membrane potential studies at a density of 20,000 cells/well and maintained in a cell incubator with 90% air: 10% CO2 until confluent. Cells were confirmed to be of smooth muscle type by cytoskeletal staining using a monoclonal mouse anti human-α-smooth muscle actin (Biomeda, Foster City, Calif.).
Functional activity at potassium channels was measured by evaluating changes in membrane potential using the bis-oxonol dye DiBAC(4) (Molecular Probes) in a 96-well cell-based kinetic assay system, Fluorescent Imaging Plate Reader (FLIPR) (K. S. Schroeder et al., J. Biomed. Screen., v. 1 pp. 75-81 (1996)), hereby incorporated by reference. DiBAC(4)3 is an anionic potentiometric probe which partitions between cells and extracellular solution in a membrane potential-dependent manner. With increasing membrane potential (for example, K^+ depolarization), the probe further partitions into the cell; this is measured as an increase in fluorescence due to dye interaction with intracellular lipids and proteins. Conversely, decreasing membrane potential (hyperpolarization by potassium channel openers) evokes a decrease in fluorescence.
Confluent guinea-pig urinary bladder cells cultured in black clear-bottomed 96-well plates were rinsed twice with […] assay buffer (composition, mM: HEPES, 20; NaCl, 120; KCl, 2; CaCl2, 2; MgCl2, 1; glucose, 5; pH 7.4 at 25° C.) containing 5 μM DiBAC(4)3 and incubated with […] of the buffer in a cell incubator for 30 minutes at 37° C. to ensure dye distribution across the membrane. After recording the baseline fluorescence for 5 minutes, the reference or test compounds, prepared at 10 times the concentration in the assay buffer, were added directly to the wells. Changes in fluorescence were monitored for an additional 25 minutes. Hyperpolarization responses were corrected for any background noise and were normalized to the response observed with 10 μM of the reference compound P1075 (assigned as 100%), a potent opener of smooth muscle KATP channels (Quast et al., Mol. Pharmacol., v. 43 pp. 474-481 (1993)), hereby incorporated by reference.
Routinely, five concentrations of P1075 or test compounds (log or half-log dilutions) were evaluated and the maximal steady-state hyperpolarization values (expressed as % relative to P1075) plotted as a function of concentration. […]

Test [2] has as its system tissue strips obtained from Landrace pig bladders. Description: Functional potassium channel opening activity in isolated bladder strips (field-stimulated twitch). The following applies: for Index: ED50 for P1075 divided by ED50 for the test agonist in a given tissue, averaged; for EC50: amount of agent necessary to cause 50% of the agent's maximal response, read-out: ED50 (the source's name); for Efficacy (% P1075) / Emax: maximal efficacy relative to P1075, field stimulation 0.05 Hz, 0.5 ms, 20 volts. As for the experimental part: Compounds were evaluated for functional potassium channel opening activity using tissue strips obtained from Landrace pig bladders.
Landrace pig bladders were obtained from female Landrace pigs of 9-30 kg. Landrace pigs were euthanized with an intraperitoneal injection of pentobarbital solution, Somlethal®, J. A. Webster Inc., Sterling, Mass. The entire bladder was removed and immediately placed into Krebs Ringer bicarbonate solution (composition, mM: NaCl, 120; NaHCO3, 20; dextrose, 11; KCl, 4.7; CaCl2, 2.5; MgSO4, 1.5; KH2PO4, 1.2; K2EDTA, 0.01, equilibrated with 5% CO2/95% O2pH 7.4 at 37° C.). Propranolol (0.004 mM) was included in all of the assays to block β-adrenoceptors. The trigonal and dome portions were discarded. Strips 3-5 mm wide and 20 mm long were prepared from the remaining tissue cut in a circular fashion. The mucosal layer was removed. One end was fixed to a stationary glass rod and the other to a Grass FT03 transducer at a basal preload of 1.0 gram. Two parallel platinum electrodes were included in the stationary glass rod to provide field stimulation of 0.05 Hz, 0.5 milli-seconds at 20 volts. This low frequency stimulation produced a stable twitch response of 100-500 centigrams. Tissues were allowed to equilibrate for at least 60 minutes and primed with 80 mM KCl. A control concentration response curve (cumulative) was generated for each tissue using the potassium channel opener P1075 as the control agonist. […] After a 60 minute rinsing period, a concentration response curve (cumulative) was generated for the test agonist in the same fashion as that used for the control agonist P1075. The maximal efficacy of each compound (expressed as % relative to P1075) is reported. The amount of agent necessary to cause 50% of the agent's maximal response (ED50) was calculated using “ALLFIT” (DeLean et al., Am. J. Physiol., 235, E97 (1980)), hereby incorporated by reference. Agonist potencies were also expressed as an index relative to P1075. The index was calculated by dividing the ED50 for P1075 by the ED50 for the test agonist in a given tissue. Each tissue was used for only one test agonist, and the indices obtained from each tissue were averaged to provide an average index of potency.

Where two headings read alike, the source gives them in different places.

Turning to `Cc1ccc(C(=O)NC(NC(=NC#N)Nc2cccnc2)C(C)(C)C)cc1` (single isomer, unassigned; (+)) [Example 58, (+) N-(1-{[(cyanoimino)(3-pyridinylamino)methyl]amino}-2,2-dimethylpropyl)-4-methylbenzamide], in test [1], the EC50 is 0.65 µM and the “Maximal Response (% P1075)” value is 87 % P1075. Besides, in test [2], the Index came to 0.008, the EC50 is 12 µM and the “Efficacy (% P1075)” value turned out to be 59 % P1075.

In the case of `CCC(CC)(CCC#N)C(NC(=O)c1ccc(Cl)cc1)NC(=NC#N)Nc1cccnc1` (single isomer, unassigned; (+)) [Example 87, (+) 4-chloro-N-(4-cyano-1-{[(cyanoimino)(3-pyridinylamino)methyl]amino}-2,2-diethylbutyl)benzamide], in test [1], the EC50 was determined as 0.52 µM and the “Maximal Response (% P1075)” value turned out to be 85 % P1075. In test [2], the Index was 0.02, the EC50 is 7.6 µM and the “Efficacy (% P1075)” value turned out to be 67 % P1075.

For `N#CN=C(Nc1cccnc1)NC(NC(=O)c1ccc(Cl)cc1)C(Cl)(Cl)Cl` (stereo not drawn) [Example 45, 4-chloro-N-(2,2,2-trichloro-1-{[(cyanoimino)(3-pyridinylamino)methyl]amino}ethyl)benzamide], in test [1] (Cavia porcellus), the EC50 was found to be 0.04 µM and the Emax was 92%.

The compound `CCC(CC)(CCC#N)C(NC(=O)c1ccc(Cl)cc1)NC(=NC#N)Nc1cccnc1` (stereo not drawn) [Example 65, 4-chloro-N-(4-cyano-1-{[(cyanoimino)(3-pyridinylamino)methyl]amino}-2,2-diethylbutyl)benzamide] showed an Emax in test [1] (Cavia porcellus) of 89%. In test [1], the EC50 was determined as 0.13 µM.

`CC1=C(CC(NC(=O)c2ccc(Cl)cc2)NC(=NC#N)Nc2cccnc2)C(C)(C)CCC1` (stereo not drawn) [Example 66, 4-chloro-N-[1-{[(cyanoimino)(3-pyridinylamino)methyl]amino}-2-(2,6,6-trimethyl-1-cyclohexen-1-yl)ethyl]benzamide] yielded an Emax in test [1] (Cavia porcellus) of 79%. For the same compound, the EC50 in test [1] was found to be 0.082 µM.

Consider `CCCCC(C)(C)C(NC(=O)c1ccc(Cl)cc1)NC(=NC#N)Nc1cccnc1` (stereo not drawn) [Example 94, 4-chloro-N-(1-{[(cyanoimino)(3-pyridinylamino)methyl]amino}-2,2-dimethylhexyl)benzamide], for which, in test [1] (Cavia porcellus), the EC50 is 0.16 µM and the Emax was found to be 82%.

In test [1] (Cavia porcellus), `C=CCOCC(CC)(COCC=C)C(NC(=O)c1ccc(Cl)cc1)NC(=NC#N)Nc1cccnc1` (stereo not drawn) [Example 96, N-(2,2-bis[(allyloxy)methyl]-1-{[(cyanoimino)(3-pyridinylamino)methyl]amino}butyl)-4-chlorobenzamide] returned an EC50 of 0.24 µM and an Emax of 93%.

Regarding `CC(Cl)(Cl)C(NC(=O)c1cccc(Cl)c1)NC(=NC#N)Nc1ccccc1F` (stereo not drawn) [Example 172, 3-chloro-N-(2,2-dichloro-1-{[(cyanoimino)(2-fluoroanilino)methyl]amino}propyl)benzamide], the Index in test [2] amounted to 0.507. In test [2] (Sus scrofa), the EC50 was found to be 0.49 µM and the maximum response (Emax) is 53%.

In test [2], `COc1ncccc1NC(=NC#N)NC(NC(=O)c1cccc(Cl)c1)C(C)(Cl)Cl` (stereo not drawn) [Example 174, 3-chloro-N-[2,2-dichloro-1-({(cyanoimino)[(2-methoxy-3-pyridinyl)amino]methyl}amino)propyl]benzamide] returned an Index of 2.2. Besides, in test [2] (Sus scrofa), the EC50 came out at 1.2 µM and the Emax came out at 34%.

Take `CC(Cl)(Cl)C(NC(=O)c1ccc(Cl)cc1)NC(=NC#N)Nc1ccccc1F` (stereo not drawn) [Example 175, 4-chloro-N-(2,2-dichloro-1-{[(cyanoimino)(2-fluoroanilino)methyl]amino}propyl)benzamide]: the Index in test [2] is reported as 0.148. Further, in test [2] (Sus scrofa), the EC50 stood at 1.5 µM and the Emax is 54%.

As to `CC(Cl)(Cl)C(NC(=O)c1ccc(Cl)cc1)NC(=NC#N)Nc1ccc(F)nc1` (stereo not drawn) [Example 180, 4-chloro-N-[2,2-dichloro-1-({(cyanoimino)[(6-fluoro-3-pyridinyl)amino]methyl}amino)propyl]benzamide], the Index in test [2] stood at 0.040. Further, in test [2] (Sus scrofa), the EC50 worked out at 2.3 µM and the Emax turned out to be 98%.

The compound `CC(C)(C)CC(NC(=O)c1ccc(Br)cc1)NC(=NS(=O)(=O)C(F)(F)F)Nc1cccnc1` (stereo not drawn) [Example 188, 4-bromo-N-{3,3-dimethyl-1-[((3-pyridinylamino){[(trifluoromethyl)sulfonyl]imino}methyl)amino]butyl}benzamide] displayed an Index in test [2] of 0.020. In test [2] (Sus scrofa), the EC50 was 10 µM and the Emax is 87%.

`CC(C)(C)CC(NC(=O)c1ccc(C(F)(F)F)cc1)NC(=NS(=O)(=O)C(F)(F)F)Nc1cccnc1` (stereo not drawn) [Example 189, N-{3,3-dimethyl-1-[((3-pyridinylamino){[(trifluoromethyl)sulfonyl]imino}methyl)amino]butyl}-4-(trifluoromethyl)benzamide] gave an Index in test [2] of 0.078. In test [2] (Sus scrofa), the EC50 worked out at 0.93 µM and the Emax worked out at 66%.

As for `CC(Cl)(Cl)C(NC(=O)c1cccs1)NC(=NC#N)Nc1ccc(Cl)nc1` (stereo not drawn) [Example 192, N-(2,2-dichloro-1-{[[(6-chloro-3-pyridinyl)amino](cyanoimino)methyl]amino}propyl)-2-thiophenecarboxamide], the Index in test [2] is 0.019. In test [2] (Sus scrofa), the EC50 amounted to 3.1 µM and the Emax is 99%.

Take `CCC(C)(C)N=C(NC#N)Nc1cccnc1` [Example P1075, reference compound]: the “stimulated twitch / stimulated contractions of the bladder” value in test [2] (P1075: 10^−9 to 10^−5 M, cumulative, ½ log increments) is “completely eliminated the stimulated twitch”.

The values are drawn from patent publication US20020028836A1, “Potassium channel openers” (priority 2000, published 2002).
